This note sets out measurements from patent US8013006B2.

The structures appear in SMILES notation.

The first assay deals with HCV replicon. As to the kind of experiment: microbe, parasite or virus in culture. Type of assay: cell-based. Conditions: Hepatitis C virus, 48 h, read-out: Replicon IC5Os.
Take `CCOC(=O)Nc1cccc(-c2c(C#N)c3ccc(OCCCN4CCN(C)CC4)cc3n2CC)c1` [Compound 526]: the IC50 was less than 500 nM.

As for `CCOC(=O)Nc1cccc(-c2c(C#N)c3ccc(OCCCN(C)CCOC)cc3n2CC)c1` [Compound 531], the IC50 lay in the range of 500 to 2000 nM. The same measure, in the same setting: for `CCOC(=O)Nc1ccc(-c2c(C#N)c3ccc(OCCCn4ccnc4)cc3n2CC)cc1` [Compound 532] the value was 500 to 2000 nM; for `CCOC(=O)Nc1ccc(-c2c(C#N)c3ccc(OCCCN4CCN(C)CC4)cc3n2CC)cc1` [Compound 533], 500 to 2000 nM. `CCOC(=O)Nc1ccc(-c2c(C#N)c3ccc(OCCCN4CCSCC4)cc3n2CC)cc1` [Compound 534]: the IC50 was less than 500 nM.

With `CCOC(=O)Nc1ccc(-c2c(C#N)c3ccc(OCCCN4CCCCC4)cc3n2CC)cc1` [Compound 535], the IC50 was less than 500 nM.

Consider `CCOC(=O)Nc1ccc(-c2c(C#N)c3ccc(OCCCn4ccnn4)cc3n2CC)cc1` [Compound 536], for which the IC50 fell in the range of 500 to 2000 nM.

Turning to `CCOC(=O)Nc1ccc(-c2c(C#N)c3ccc(OCCCN4CCCC4)cc3n2CC)cc1` [Compound 537], the IC50 was less than 500 nM. Turning to `CCOC(=O)Nc1ccc(-c2c(C#N)c3ccc(OCCCn4cncn4)cc3n2CC)cc1` [Compound 538], the IC50 was 500 to 2000 nM. As for `CCOC(=O)Nc1ccc(-c2c(C#N)c3ccc(OCCCN4CCOCC4)cc3n2CC)cc1` [Compound 539], the IC50 is less than 500 nM. Turning to `C=CS(=O)(=O)Nc1cccc(-c2c(C#N)c3ccc(C(F)(F)F)cc3n2CC)c1` [Compound 562], the IC50 is less than 500 nM.

In the case of `CCn1c(-c2cccc(NC(=O)OC)c2)c(C#N)c2ccc(OC(C)C)cc21` [Compound 581], the IC50 lay in the range of 500 to 2000 nM. Same read-out and setting: for `CCOC(=O)Nc1cccc(-c2c(C#N)c3ccc(OC(C)C)cc3n2CC)c1` [Compound 582] the value was 500 to 2000 nM; for `CCCOC(=O)Nc1cccc(-c2c(C#N)c3ccc(OC(C)C)cc3n2CC)c1` [Compound 585], 500 to 2000 nM.

The same assay, now with this note: Replicon IC50 values are determined by firefly luciferase signal; bicistronic replicon, 2 days; read-out: Replicon IC5Os.
For `CCOC(=O)Nc1cccc(-c2c(C#N)c3ccc(OCCCN4CCSCC4)cc3n2CC)c1` [Compound 527], the IC50 lay in the range of 500 to 2000 nM. Consider `CCOC(=O)Nc1cccc(-c2c(C#N)c3ccc(OCCCN4CCCCC4)cc3n2CC)c1` [Compound 528], for which the IC50 fell in the range of 500 to 2000 nM. For `CCOC(=O)Nc1cccc(-c2c(C#N)c3ccc(OCCCn4ccnn4)cc3n2CC)c1` [Compound 529], the IC50 is 500 to 2000 nM.

With `CCn1c(-c2cccc(NS(=O)(=O)NC)c2)c(C#N)c2ccc(OC)cc21` [Compound 540], the IC50 is 500 to 2000 nM.

As to `CCNS(=O)(=O)Nc1cccc(-c2c(C#N)c3ccc(OC)cc3n2CC)c1` [Compound 541], the IC50 is more than 2000 nM. On the same count and under the same terms, for `CCCOC(=O)Nc1ccc(-c2c(C#N)c3ccc(OCCF)cc3n2CC)cc1` [Compound 547] the value was less than 500 nM; for `COc1ccc2c(C#N)c(-c3cccc(NC(=O)OCCCl)c3)n(C(C)C)c2c1` [Compound 553], more than 2000 nM. Still for that read-out and setting: for `C#CCOC(=O)Nc1cccc(-c2c(C#N)c3ccc(OC)cc3n2C(C)C)c1` [Compound 554] the value was more than 2000 nM; for `COCCOC(=O)Nc1cccc(-c2c(C#N)c3ccc(OC)cc3n2C(C)C)c1` [Compound 555], more than 2000 nM; for `COc1ccc2c(C#N)c(-c3cccc(NC(=O)OCc4ccccc4)c3)n(C(C)C)c2c1` [Compound 556], more than 2000 nM. `COc1ccc(OC(=O)Nc2cccc(-c3c(C#N)c4ccc(OC)cc4n3C(C)C)c2)cc1` [Compound 557]: the IC50 lay in the range of 500 to 2000 nM. Turning to `CCn1c(-c2cccc(NC(=O)CCl)c2)c(C#N)c2ccc(C(F)(F)F)cc21` [Compound 558], the IC50 was in the range of 500 to 2000 nM. `CCC(=O)Nc1cccc(-c2c(C#N)c3ccc(C(F)(F)F)cc3n2CC)c1` [Compound 559]: the IC50 is more than 2000 nM. As for `CCn1c(-c2cccc(NC(=O)c3ccccc3)c2)c(C#N)c2ccc(C(F)(F)F)cc21` [Compound 560], the IC50 is more than 2000 nM. Regarding `CCn1c(-c2cccc(NC(=O)C3CC3)c2)c(C#N)c2ccc(C(F)(F)F)cc21` [Compound 561], the IC50 was more than 2000 nM. On the same count and under the same terms, for `CCn1c(-c2ccc(C(=O)NCCNC)cc2)c(C#N)c2ccc(OC)cc21` [Compound 564] the value was 500 to 2000 nM. For `CCn1c(-c2ccc(NC(C)=O)cc2)c(C#N)c2ccccc21` [Compound 565], the IC50 was more than 2000 nM.

`CCn1c(-c2ccc(NC(=O)COC)cc2)c(C#N)c2ccccc21` [Compound 566]: the IC50 was more than 2000 nM.

Consider `CCn1c(-c2ccc(C(N)=O)cc2)c(C#N)c2cc(OC)ccc21` [Compound 568], for which the IC50 is more than 2000 nM. Still for that read-out and setting: for `CCNC(=O)c1ccc(-c2c(C#N)c3cc(OC)ccc3n2CC)cc1` [Compound 569] the value was 500 to 2000 nM; for `CCn1c(-c2ccc(C(=O)NC3CC3)cc2)c(C#N)c2cc(OC)ccc21` [Compound 571], 500 to 2000 nM. The same measure, in the same setting: next, `CCn1c(-c2ccc(C(=O)NCCOC)cc2)c(C#N)c2cc(OC)ccc21` [Compound 572]: 500 to 2000 nM; `CCn1c(-c2ccc(C(=O)N3CCCN(C)CC3)cc2)c(C#N)c2cc(OC)ccc21` [Compound 573]: more than 2000 nM. Still for that read-out and setting: next, `CCN(CC)S(=O)(=O)Nc1cccc(-c2c(C#N)c3ccc(OC)cc3n2CC)c1` [Compound 574]: more than 2000 nM; `CCS(=O)(=O)Nc1ccc(-c2cc3cc(OC)ccc3n2C)cc1` [Compound 575]: 500 to 2000 nM.

For `CCn1c(-c2cccc(NS(=O)(=O)N3CCCC3)c2)c(C#N)c2ccc(OC)cc21` [Compound 576], the IC50 was more than 2000 nM. On to `CCS(=O)(=O)Nc1ccc(-c2cc3c(OC)cccc3n2C)cc1` [Compound 577], for which the IC50 fell in the range of 500 to 2000 nM. As for `CCn1c(-c2ccc3occc3c2)c(C#N)c2ccc(OC)cc21` [Compound 578], the IC50 is 500 to 2000 nM. On the same count and under the same terms, for `CCn1c(-c2cccc(NC(=O)OCCF)c2)c(C#N)c2ccc(OC(C)C)cc21` [Compound 583] the value was 500 to 2000 nM. As for `CCn1c(-c2cccc(NC(=O)OCCCl)c2)c(C#N)c2ccc(OC(C)C)cc21` [Compound 584], the IC50 is more than 2000 nM.

For the compound `CCn1c(-c2cccc(NC(=O)OCCCCl)c2)c(C#N)c2ccc(OC(C)C)cc21` [Compound 586], the IC50 is 500 to 2000 nM. On the same count and under the same terms, for `CCn1c(-c2cccc(NC(=O)OC(C)C)c2)c(C#N)c2ccc(OC(C)C)cc21` [Compound 587] the value was 500 to 2000 nM; for `C#CCOC(=O)Nc1cccc(-c2c(C#N)c3ccc(OC(C)C)cc3n2CC)c1` [Compound 588], more than 2000 nM; for `CCn1c(-c2cccc(NC(=O)OCCOC)c2)c(C#N)c2ccc(OC(C)C)cc21` [Compound 589], 500 to 2000 nM. On the same count and under the same terms, next, `CCn1c(-c2cccc(NC(=O)OCC(C)C)c2)c(C#N)c2ccc(OC(C)C)cc21` [Compound 591]: more than 2000 nM. The same measure, in the same setting: next, `CC#CCOC(=O)Nc1cccc(-c2c(C#N)c3ccc(OC(C)C)cc3n2CC)c1` [Compound 592]: more than 2000 nM; `CCn1c(-c2cccc(NC(=O)OCc3ccccc3)c2)c(C#N)c2ccc(OC(C)C)cc21` [Compound 593]: more than 2000 nM. For `CCn1c(-c2cccc(NC(=O)OCCl)c2)c(C#N)c2ccc(OC(C)C)cc21` [Compound 594], the IC50 is more than 2000 nM. The same measure, in the same setting: for `CCCCOC(=O)Nc1cccc(-c2c(C#N)c3ccc(OC(C)C)cc3n2CC)c1` [Compound 595] the value was more than 2000 nM; for `C=CCOC(=O)Nc1cccc(-c2c(C#N)c3ccc(OC(C)C)cc3n2CC)c1` [Compound 596], 500 to 2000 nM.
